Test results published in patent publication US10124004B2, “Pyrido[3,4-d]pyrimidine derivative and pharmaceutically acceptable salt thereof” (Teijin Pharma Limited, priority 2015, dated 2018).
Like-named read-outs stand apart in the source and are kept apart here.

What was measured:
CDK2/cyclin A2 = molecular target: T1, CDK2/cyclin A2 (Homo sapiens, UniProt P24941); experiment: Human CDK2/cyclin A2 inhibitory activity (QS S Assist CDK2/Cyclin A2_FP Kit, IMAP fluorescence polarization); format: biochemical
T1 construct: purchased Carna Biosciences, Inc. QS S Assist CDK2/Cyclin A2_FP Kit
Procedure, shortened: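 Kinase activity read as fluorescence polarization (485/535 nm) after phosphorylated fluorescent substrate binds IMAP reagent (30 min, RT, dark). Enzyme (2.5 ng/well) reacted 60 min at RT with ATP/substrate/metal in HEPES pH 7.4 buffer with Tween 20 and DTT; no-enzyme wells define 0% activity; IC50 by curve fit.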

CDK4/cyclin D3 = molecular target: T2, CDK4/cyclin D3 (Homo sapiens, UniProt P11802); experiment: Human CDK4/cyclin D3 inhibitory activity (QS S Assist CDK4/Cyclin D3_FP Kit, IMAP fluorescence polarization); format: biochemical
T2 construct: purchased Carna Biosciences, Inc. QS S Assist CDK4/Cyclin D3_FP Kit
T2 sequence (P11802 whole entry): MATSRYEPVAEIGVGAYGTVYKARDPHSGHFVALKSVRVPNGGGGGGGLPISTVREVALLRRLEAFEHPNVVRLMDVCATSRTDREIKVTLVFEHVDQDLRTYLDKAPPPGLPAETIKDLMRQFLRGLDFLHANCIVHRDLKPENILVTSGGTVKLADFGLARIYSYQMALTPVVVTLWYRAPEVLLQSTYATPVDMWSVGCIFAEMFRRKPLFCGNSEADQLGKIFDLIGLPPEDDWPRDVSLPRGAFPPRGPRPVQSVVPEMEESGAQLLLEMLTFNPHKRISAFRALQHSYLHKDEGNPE
T2 sequence (P30281 whole entry partner): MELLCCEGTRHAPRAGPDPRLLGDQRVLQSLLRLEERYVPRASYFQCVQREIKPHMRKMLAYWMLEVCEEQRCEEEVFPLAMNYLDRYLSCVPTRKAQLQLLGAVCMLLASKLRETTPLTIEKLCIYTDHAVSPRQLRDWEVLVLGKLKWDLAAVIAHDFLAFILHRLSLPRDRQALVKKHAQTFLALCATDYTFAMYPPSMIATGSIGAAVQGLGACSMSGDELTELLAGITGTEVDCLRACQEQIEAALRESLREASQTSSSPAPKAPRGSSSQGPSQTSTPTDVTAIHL
Procedure, shortened: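 Percent inhibition, relative to DMSO with and without enzyme, was curve-fitted to give IC50 from polarization (ex 485, em 535 nm). The 45-min room-temperature reaction used 12.5-25 ng/well enzyme, kit ATP/substrate/metal mix, and HEPES pH 7.4 buffer with Tween20 and DTT, followed by 30-min IMAP binding in the dark.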

[1] = Human CDK2/cyclin A2 inhibitory activity, read-out: CDK2 Activity symbol
[2] = Human CDK4/cyclin D3 inhibitory activity, read-out: CDK4 Activity symbol
[3] = 50% inhibitory concentration against CDK2/cyclin A2, given as class symbol
[4] = 50% inhibitory concentration against CDK4/cyclin D3, given as class symbol

| IC50 (CDK2/cyclin A2; [1]) [nM] | IC50 (CDK4/cyclin D3; [2]) [nM] | IC50 (CDK2/cyclin A2; [3]) [nM] | IC50 (CDK4/cyclin D3; [4]) [nM] | Structure (SMILES) |
| --- | --- | --- | --- | --- |
| ≥ 100 | < 10 | – | – | COCC(C)(C)Nc1nc([C@@H](C)O)cc2cnc(Nc3ccc(C4CCN(C(C)=O)CC4)cn3)nc12 [Compound 225] |
| ≥ 100 | 10 to 100 | – | – | O=C(O)[C@H]1CC[C@H](Nc2nc(C(F)F)cc3cnc(Nc4ccc(CN5CCNCC5)cn4)nc23)CC1 [Compound 383] |
| – | – | 10 to 100 | < 10 | CC(C)Nc1nc([C@@H](C)O)cc2cnc(Nc3ccc(N4CCN(CCO)CCC4=O)cn3)nc12 [Compound 811] |
| ≥ 100 | < 10 | – | – | CO[C@H](C)c1cc2cnc(Nc3ccc(CN4CC[C@@H](F)C4)cn3)nc2c(NC(C)C)n1 [Compound 271] |
| – | – | ≥ 100 | < 10 | c1cc(Nc2ncc3cc(C4CCOC4)nc(N[C@H]4CCCOC4)c3n2)ncc1CN1CCNCC1 (stereo partly shown) [Compound 882] |
| 10 to 100 | < 10 | – | – | CC(C)Nc1nc(C(F)F)cc2cnc(Nc3ccc(N4CCNC(=O)C4)cn3)nc12 [Compound 83] |
| ≥ 100 | < 10 | – | – | CNCCCOc1ccc(Nc2ncc3cc([C@@H](C)OC)nc(NC(C)C)c3n2)nc1 [Compound 526] |
| – | – | ≥ 100 | < 10 | C[C@@H](O)c1cc2cnc(Nc3ccc(N4CCNCC4=O)cn3)nc2c(NC2CC(F)C2)n1 (stereo partly shown) [Compound 1210] |
| – | – | ≥ 100 | < 10 | CC(C)Nc1nc([C@@H](C)O)cc2cnc(Nc3ccc4c(n3)CCN(C(=O)C3CCNCC3)C4)nc12 [Compound 932] |
| – | – | ≥ 100 | < 10 | C[C@@H](O)c1cc2cnc(Nc3ccc(CN4CCC(CO)CC4)cn3)nc2c(NCC2CC2)n1 [Compound 1149] |
| ≥ 100 | < 10 | – | – | CO[C@H](C)c1cc2cnc(Nc3ccc(OC4CCNC4)cn3)nc2c(NC(C)C)n1 (stereo partly shown) [Compound 290] |
| – | – | ≥ 100 | < 10 | C[C@@H](O)c1cc2cnc(Nc3ccc(CN4CCC[C@@H](O)C4)cn3)nc2c(NC(C)(C)C)n1 [Compound 1197] |
| – | – | ≥ 100 | < 10 | CC(C)Nc1nc([C@@H](C)O)cc2cnc(Nc3ccc(C4CCN(C(C)(C)C(=O)O)CC4)cn3)nc12 [Compound 796] |
| – | – | ≥ 100 | 10 to 100 | CC(C)Nc1nc(C2CCCO2)cc2cnc(Nc3ccc(N4CCNCC4)cn3)nc12 (stereo not shown) [Compound 992] |
| ≥ 100 | 10 to 100 | – | – | C[C@@H](O)c1cc2cnc(Nc3ccc(N4CCN(C=O)CC4=O)cn3)nc2c(N[C@H]2CCOC2)n1 [Compound 354] |
| – | – | ≥ 100 | < 10 | CN(C)CCN1CCc2nc(Nc3ncc4cc(C5(C)COC5)nc(N[C@H]5CCCOC5)c4n3)ccc2C1 [Compound 1179] |
| ≥ 100 | < 10 | – | – | CC(C)Nc1nc(C(C)O)cc2cnc(Nc3ccc(N4CCC(N)C(F)C4)nn3)nc12 (stereo not shown) [Compound 619] |
| 10 to 100 | < 10 | – | – | CC(C)Nc1nc(C(F)F)cc2cnc(Nc3ccc(N4C[C@@H](O)CC4=O)cn3)nc12 [Compound 184] |
| – | – | ≥ 100 | < 10 | C[C@@H](O)c1cc2cnc(Nc3ccc4c(n3)CCN(CCO)C4)nc2c(N[C@H]2CCCOC2)n1 [Compound 1125] |
| – | – | 10 to 100 | < 10 | CC(C)Nc1nc([C@@H](C)O)cc2cnc(Nc3ccc(C(=O)N4CCN(C)CC4)cn3)nc12 [Compound 1160] |
| ≥ 100 | < 10 | – | – | C[C@@H](O)c1cc2cnc(Nc3ccc(N4CCN(C=O)CC4=O)cn3)nc2c(NC2CCOCC2)n1 [Compound 355] |
| – | – | ≥ 100 | < 10 | CC(C)Nc1nc([C@@H](C)O)cc2cnc(Nc3ccc(N4CC(O)C4)nn3)nc12 [Compound 666] |
| 10 to 100 | < 10 | – | – | CC(C)(C)Nc1nc(C(F)F)cc2cnc(Nc3ccc(N4CCNCC4)cn3)nc12 [Compound 13] |
| 10 to 100 | < 10 | – | – | CC(C)Nc1nc(C(F)F)cc2cnc(Nc3ccc(N4CCN(CCO)CC4)cn3)nc12 [Compound 49] |
| ≥ 100 | ≥ 100 | – | – | CC(C)Nc1nc(C(F)F)cc2cnc(Nc3ccc(CN4CC(O)C4)cn3)nc12 [Compound 126] |
| ≥ 100 | 10 to 100 | – | – | C[C@@H](O)c1cc2cnc(Nc3ccc(N4CCNCC4)nn3)nc2c(NC2CCS(=O)(=O)CC2)n1 [Compound 322] |
| – | – | ≥ 100 | < 10 | CC1(c2cc3cnc(Nc4ccc5c(n4)CCNC5)nc3c(N[C@H]3CCCOC3)n2)COC1 [Compound 888] |

The next lines start with the compound.

| Structure (SMILES) | IC50 (CDK2/cyclin A2; [1]) [nM] | IC50 (CDK4/cyclin D3; [2]) [nM] | IC50 (CDK2/cyclin A2; [3]) [nM] | IC50 (CDK4/cyclin D3; [4]) [nM] |
| --- | --- | --- | --- | --- |
| OCCN1CCN(Cc2ccc(Nc3ncc4cc(C5CCOC5)nc(N[C@H]5CCCOC5)c4n3)nc2)CC1 (stereo partly shown) [Compound 1011] | – | – | ≥ 100 | < 10 |
| CC(C)Nc1nc([C@@H](C)O)cc2cnc(Nc3ccc(N4CCC(O)C5(CC5)C4)nn3)nc12 (stereo partly shown) [Compound 723] | – | – | ≥ 100 | < 10 |
| C[C@@H](O)c1cc2cnc(Nc3ccc(N4CCNCC4=O)cn3)nc2c(NCC2CCCOC2)n1 (stereo partly shown) [Compound 691] | – | – | ≥ 100 | < 10 |
| CC(C)Nc1nc([C@@H](C)O)cc2cnc(Nc3ccc(OCCN(C)C)nn3)nc12 [Compound 474] | ≥ 100 | < 10 | – | – |
| CNC1CCN(c2ccc(Nc3ncc4cc(C(C)O)nc(NC(C)C)c4n3)nn2)CC1F (stereo not shown) [Compound 609] | ≥ 100 | < 10 | – | – |
| CCNc1nc(C(F)F)cc2cnc(Nc3ccc(N4CCNCC4=O)cn3)nc12 [Compound 820] | – | – | 10 to 100 | < 10 |
| O=C(O)C1CCN(Cc2ccc(Nc3ncc4cc(C(F)F)nc(NCC5CC5)c4n3)nc2)CC1 [Compound 1100] | – | – | ≥ 100 | 10 to 100 |
| CO[C@H](C)c1cc2cnc(Nc3ccc(N4CCNCCC4=O)cn3)nc2c(NC(C)C)n1 [Compound 499] | 10 to 100 | < 10 | – | – |
| CC(C)Nc1nc(C(F)F)cc2cnc(Nc3ccc(NC(=O)C(N)=O)cn3)nc12 [Compound 97] | ≥ 100 | 10 to 100 | – | – |
| CC(=O)c1cc2cnc(Nc3ccc(N4CCNCC4=O)cn3)nc2c(NC(C)C)n1 [Compound 743] | – | – | ≥ 100 | < 10 |
| CC(C)Nc1nc([C@@H](C)O)cc2cnc(Nc3ccc(N4CCN(CC(=O)N(C)C)CC4)nn3)nc12 [Compound 991] | – | – | ≥ 100 | < 10 |
| CC(C)Nc1nc([C@@H](C)O)cc2cnc(Nc3ccc(N4CCN(CC(=O)O)CC4C(F)(F)F)cn3)nc12 (stereo partly shown) [Compound 892] | – | – | ≥ 100 | 10 to 100 |
| CC(C)Nc1nc([C@@H](C)O)cc2cnc(Nc3ccc4c(n3)CNC4)nc12 [Compound 695] | – | – | ≥ 100 | < 10 |
| CC(C)Nc1nc(C(F)F)cc2cnc(Nc3ccc(N4CCNCC4)nn3)nc12 [Compound 73] | 10 to 100 | < 10 | – | – |
| CC(C)Nc1nc(C(F)F)cc2cnc(Nc3ccc(C4CCC(O)CC4)cn3)nc12 (stereo not shown) [Compound 107] | ≥ 100 | 10 to 100 | – | – |
| c1cc(N2CCNCC2)nnc1Nc1ncc2cc(C3CCOC3)nc(N[C@H]3CCCOC3)c2n1 (stereo partly shown) [Compound 878] | – | – | ≥ 100 | < 10 |

| Structure (SMILES) | IC50 (CDK2/cyclin A2; [1]) [nM] | IC50 (CDK4/cyclin D3; [2]) [nM] | IC50 (CDK2/cyclin A2; [3]) [nM] | IC50 (CDK4/cyclin D3; [4]) [nM] |
| --- | --- | --- | --- | --- |
| CC(C)Nc1nc([C@@H](C)O)cc2cnc(Nc3ccc(N4CCC(N)CC4=O)cn3)nc12 (stereo partly shown) [Compound 605] | 10 to 100 | < 10 | – | – |
| CC(C)Nc1nc(C(F)F)cc2cnc(Nc3ccc(CN4CCS(=O)(=O)CC4)cn3)nc12 [Compound 113] | ≥ 100 | < 10 | – | – |
| CO[C@H](C)c1cc2cnc(Nc3ccc(CC(N)=O)cn3)nc2c(NC(C)C)n1 [Compound 231] | ≥ 100 | 10 to 100 | – | – |
| CC1(c2cc3cnc(Nc4ccc(CN5CCNCC5)cn4)nc3c(N[C@H]3CCCOC3)n2)COC1 [Compound 884] | – | – | ≥ 100 | < 10 |
| CC(O)c1cc2cnc(Nc3ccc(N4CCNCC4)cn3)nc2c(N(C)C2CCCC2)n1 (stereo not shown) [Compound 10] | ≥ 100 | < 10 | – | – |
| CCCCNc1nc(C(C)=O)cc2cnc(Nc3ccc(CN4CCN(CCO)CC4)cn3)nc12 [Compound 975] | – | – | ≥ 100 | 10 to 100 |
| CC(C)Nc1nc([C@@H](C)O)cc2cnc(Nc3ccc(N4CCN(CC(=O)N(C)C)CC4=O)cn3)nc12 [Compound 962] | – | – | ≥ 100 | < 10 |
| CC(C)Nc1nc(C2CCCO2)cc2cnc(Nc3ccc(N4CCNCC4)cn3)nc12 (stereo not shown) [Compound 993] | – | – | ≥ 100 | < 10 |
| CC(C)N(C)c1nc(C(F)F)cc2cnc(Nc3ccc(N4CCNCC4)cn3)nc12 [Compound 14] | ≥ 100 | < 10 | – | – |
| CC(=O)N(Cc1ccc(Nc2ncc3cc(C(F)F)nc(NC(C)C)c3n2)nc1)C[C@H]1CCCO1 [Compound 145] | 10 to 100 | < 10 | – | – |
| C[C@@H](O)c1cc2cnc(Nc3ccc(CN4CCN(CCO)CC4)cn3)nc2c(NC2CC(F)(F)C2)n1 [Compound 1204] | – | – | ≥ 100 | < 10 |
| CC(C)Nc1nc(C(F)F)cc2cnc(Nc3ccc(OCCN(C)C)cn3)nc12 [Compound 81] | 10 to 100 | < 10 | – | – |
| CC(C)Nc1nc([C@@H](C)O)cc2cnc(Nc3ccc(N4CCN(CC(=O)O)CC4=O)cn3)nc12 [Compound 833] | – | – | ≥ 100 | < 10 |
| CO[C@H](C)c1cc2cnc(Nc3ccc(N4C[C@H]5C[C@@H]4CN5)nn3)nc2c(NC(C)C)n1 [Compound 859] | – | – | ≥ 100 | < 10 |
| CCCNc1nc([C@@H](C)O)cc2cnc(Nc3ccc(CN4CCN(CCO)[C@H](C)C4)cn3)nc12 [Compound 1209] | – | – | ≥ 100 | < 10 |
| CO[C@H](C)c1cc2cnc(Nc3ccc(N4CCNCC4)nn3)nc2c(NCC2CCOCC2)n1 [Compound 358] | ≥ 100 | < 10 | – | – |
